What is called IC50 is the point on the concentration scale where inhibition reaches its midpoint.

We go through 3 molecules from patent US20240123045A1, “NONAUTOLOGOUS MULTI-STRESSED CANCER CELLS AND USES THEREOF FOR VACCINATING AND TREATING CANCERS” (BRENUS PHARMA, priority 2021, published 2024).

Where two headings read alike, the source gives them in different places.

One experiment has as its system CD107 (LAMP-1). The experiment in a line: FACS marker expression: CD107. In kind it is cell-based, human. The note with it: HT-29 cells treated with oxaliplatin. The protocol: (§1) A comparison of marker expression was carried out to validate each DS-A and DS-B.
(§2) Finally, the vaccine composition (DP or “STC-1010”) could be formulated by pooling all six DS (3 DS-A—one for each cell line; and 3 DS-B—one for each cell line) in 100 μL doses (each comprising 3 million cells).

For another experiment, the system named is CD54 (ICAM-1). The experiment in a line: FACS marker expression: CD54. The note with it: HT-29 cells treated with oxaliplatin. The class given is cell-based, human. The protocol: as §1
A further experiment relates to CD95 (FAS receptor). Put plainly: FACS marker expression: CD95. The class given is cell-based, human. The note with it: HT-29 cells treated with oxaliplatin. The protocol: as §1
The test system of another experiment is HCT-116. Put plainly: Cytotoxic assay (IC50) in HCT-116. In kind it is cell-based, human. From the text: (§3) DS-B: cells were exposed to a chemical stress comprising a chemical stimulation with chemotherapeutic agents commonly used for the colorectal cancer: 5-FU (Sigma, F6627), oxaliplatin (Sigma, Y0000271) or SN-38 (7-ethyl-10-hydroxy-camptothecin) (Sigma, H0165). In particular, the association of a chemotherapeutic agent with each cell line was based on literature assumptions (Table 3), and further on the degree of resistance of the cell line to each chemotherapeutic agent. For each cell line, this resistance level to each chemotherapeutic agent was assessed by determining the half maximal inhibitory concentration (IC50) in a cytotoxic assay.

In experiment [1] the test system is colorectal human cell lines. The note with it: according to the literature; cited from earlier work.
The subject of a further experiment is LoVo. The experiment in a line: Cytotoxic assay (IC50) in LoVo. The class given is cell-based, human.
From the text: as §3

A further experiment concerns HT-29. The experiment in a line: Cytotoxic assay (IC50) in HT-29. The class given is cell-based, human.
From the text: as §3

The next experiment deals with CD66 (CEA). The experiment in a line: FACS marker expression: CD66. The class given is cell-based, human. Here is the method: as §1
For the next experiment, the system named is SW480. Put plainly: Cytotoxic assay (IC50) in SW480. The note with it: Homo sapiens, SW480 cell line. The class given is cell-based.
From the text: as §3

For a further experiment, the system named is CD243 (MDR-1). The experiment in a line: FACS marker expression: CD243. In kind it is cell-based, human. The note with it: LoVo cells treated with 5-FU. Here is the method: as §1, §2
Where [2] appears, read: HCT-116 cell line, cytotoxic assay, read-out: IC50.
Where [3] appears, read: LoVo cell line, cytotoxic assay, read-out: IC50.
Where [4] appears, read: HT-29 cell line, cytotoxic assay, read-out: IC50.

Regarding `O=C1[O][Pt]2([NH][C@@H]3CCCC[C@H]3[NH]2)[O]C1=O` [Oxaliplatin, oxaliplatin], the “CD107 expression as compared to unstressed cells” value in the experiment on CD107 (LAMP-1) was “overexpression”. Moreover, in the experiment with CD54 (ICAM-1), the “CD54 expression as compared to unstressed cells” value is given as “overexpression”. In addition, the “CD95 expression as compared to unstressed cells” value with CD95 (FAS receptor) was “overexpression”. The IC50 with HCT-116 (setting [2]) is 600 nM; with LoVo (setting [3]) it was 1100 nM; with HT-29 (setting [4]), 460 nM. The Resistance cell lines result in experiment [1] was “HCT-116, HT-29, LoVo, SW48”.
With `CCc1c2c(nc3ccc(O)cc13)-c1cc3c(c(=O)n1C2)COC(=O)[C@]3(O)CC` [SN-38, 7-ethyl-10-hydroxy-camptothecin], the results for the IC50 with HCT-116 (setting [2]), in the experiment on LoVo (setting [3]) and in the experiment with HT-29 (setting [4]) were 50 nM, 22 nM and 130 nM, respectively. For the same molecule, the Resistance cell lines result in [1] is “HCT-116, HT-29, SW48”. Also, the “CD66 expression as compared to unstressed cells” value in the experiment on CD66 (CEA) (HCT-116 cells treated with SN-38) is “overexpression”.
On to `O=c1[nH]cc(F)c(=O)[nH]1` [5-FU, fluorouracil], for which the half-inhibitory concentration (IC50) worked out at 17000 nM with HCT-116 (Homo sapiens, HCT-116); 2400 nM with LoVo (Homo sapiens, LoVo); 23100 nM in the experiment with SW480; 3600 nM in the experiment on HT-29 (Homo sapiens, HT-29). The Resistance cell lines entry in experiment [1] is on record as “HCT-116, HT-29, SW48, SW480”. The “CD66 expression as compared to unstressed cells” value in the experiment on CD66 (CEA) (LoVo cells treated with 5-FU) was “overexpression”. Also, the “CD243 expression as compared to unstressed cells” value in the experiment with CD243 (MDR-1) is “overexpression”.
